How the values were obtained:
ADCK3 = ADCK3 (Homo sapiens, UniProt Q8NI60); assay: biochemical; settings: read-out: %Ctrl @ 2000nM
ALK = ALK (Homo sapiens, UniProt Q9UM73); assay: biochemical; settings: read-out: %Ctrl @ 2000nM
ANKK1 = ANKK1 (Homo sapiens, UniProt Q8NFD2); assay: biochemical; settings: read-out: %Ctrl @ 2000nM
CAMKK2 = CAMKK2 (Homo sapiens, UniProt Q96RR4); assay: biochemical; settings: read-out: %Ctrl @ 2000nM
CDK3 = CDK3 (Homo sapiens, UniProt Q00526); assay: biochemical; settings: read-out: %Ctrl @ 2000nM
CDK8 = CDK8 (Homo sapiens, UniProt P49336); assay: biochemical; settings: read-out: %Ctrl @ 2000nM
CSK = CSK (Homo sapiens, UniProt P41240); assay: biochemical; settings: read-out: %Ctrl @ 2000nM
DAPK1 = DAPK1 (Homo sapiens, UniProt P53355); assay: biochemical; settings: read-out: %Ctrl @ 2000nM
DAPK3 = DAPK3 (Homo sapiens, UniProt O43293); assay: biochemical; settings: read-out: %Ctrl @ 2000nM
EGFR(L858R) = EGFR(L858R) (Homo sapiens, UniProt P00533, L858R); assay: biochemical; settings: read-out: %Ctrl @ 2000nM
EGFR(L858R,T790M) = EGFR(L858R,T790M) (Homo sapiens, UniProt P00533, L858R/T790M); assay: biochemical; settings: read-out: %Ctrl @ 2000nM
EGFR(L861Q) = EGFR(L861Q) (Homo sapiens, UniProt P00533, L861Q); assay: biochemical; settings: read-out: %Ctrl @ 2000nM
EIF2AK1 = EIF2AK1 (Homo sapiens, UniProt Q9BQI3); assay: biochemical; settings: read-out: %Ctrl @ 2000nM
EPHB3 = EPHB3 (Homo sapiens, UniProt P54753); assay: biochemical; settings: read-out: %Ctrl @ 2000nM
ERK3 = ERK3 (Homo sapiens, UniProt Q16659); assay: biochemical; settings: read-out: %Ctrl @ 2000nM
ERK5 = ERK5 (Homo sapiens, UniProt Q13164); assay: biochemical; settings: read-out: %Ctrl @ 2000nM
FER = FER (Homo sapiens, UniProt P16591); assay: biochemical; settings: read-out: %Ctrl @ 2000nM
GAK = GAK (Homo sapiens, UniProt O14976); assay: biochemical; settings: read-out: %Ctrl @ 2000nM
HUNK = HUNK (Homo sapiens, UniProt P57058); assay: biochemical; settings: read-out: %Ctrl @ 2000nM
KIT(V559D) = KIT(V559D) (Homo sapiens, UniProt P10721, V559D); assay: biochemical; settings: read-out: %Ctrl @ 2000nM
KIT(V559D,V654A) = KIT(V559D,V654A) (Homo sapiens, UniProt P10721, V559D/V654A); assay: biochemical; settings: read-out: %Ctrl @ 2000nM
LCK = LCK (Homo sapiens, UniProt P06239); assay: biochemical; settings: read-out: %Ctrl @ 2000nM
MAP4K4 = MAP4K4 (Homo sapiens, UniProt O95819); assay: biochemical; settings: read-out: %Ctrl @ 2000nM
MET(Y1235D) = MET(Y1235D) (Homo sapiens, UniProt P08581, Y1235D); assay: biochemical; settings: read-out: %Ctrl @ 2000nM
MRCKA = MRCKA (Homo sapiens, UniProt Q5VT25); assay: biochemical; settings: read-out: %Ctrl @ 2000nM
NEK10 = NEK10 (Homo sapiens, UniProt Q6ZWH5); assay: biochemical; settings: read-out: %Ctrl @ 2000nM
NEK5 = NEK5 (Homo sapiens, UniProt Q6P3R8); assay: biochemical; settings: read-out: %Ctrl @ 2000nM
PAK2 = PAK2 (Homo sapiens, UniProt Q13177); assay: biochemical; settings: read-out: %Ctrl @ 2000nM
PFPK5(P.falciparum) = PFPK5(P.falciparum) (Plasmodium falciparum, UniProt P61075); assay: biochemical; settings: read-out: %Ctrl @ 2000nM
PIK3CA(Q546K) = PIK3CA(Q546K) (Homo sapiens, UniProt P42336, Q546K); assay: biochemical; settings: read-out: %Ctrl @ 2000nM
PIP5K1A = PIP5K1A (Homo sapiens, UniProt Q99755); assay: biochemical; settings: read-out: %Ctrl @ 2000nM
PRKG2 = PRKG2 (Homo sapiens, UniProt Q13237); assay: biochemical; settings: read-out: %Ctrl @ 2000nM
RAF1 = RAF1 (Homo sapiens, UniProt P04049); assay: biochemical; settings: read-out: %Ctrl @ 2000nM
RET(V804M) = RET(V804M) (Homo sapiens, UniProt P07949, V804M); assay: biochemical; settings: read-out: %Ctrl @ 2000nM
RIPK4 = RIPK4 (Homo sapiens, UniProt P57078); assay: biochemical; settings: read-out: %Ctrl @ 2000nM
SNRK = SNRK (Homo sapiens, UniProt Q9NRH2); assay: biochemical; settings: read-out: %Ctrl @ 2000nM
SRMS = SRMS (Homo sapiens, UniProt Q9H3Y6); assay: biochemical; settings: read-out: %Ctrl @ 2000nM
TNNI3K = TNNI3K (Homo sapiens, UniProt Q59H18); assay: biochemical; settings: read-out: %Ctrl @ 2000nM
TYRO3 = TYRO3 (Homo sapiens, UniProt Q06418); assay: biochemical; settings: read-out: %Ctrl @ 2000nM
WNK2 = WNK2 (Homo sapiens, UniProt Q9Y3S1); assay: biochemical; settings: read-out: %Ctrl @ 2000nM
WNK3 = WNK3 (Homo sapiens, UniProt Q9BYP7); assay: biochemical; settings: read-out: %Ctrl @ 2000nM
YES = YES (Homo sapiens, UniProt P07947); assay: biochemical; settings: read-out: %Ctrl @ 2000nM

Sequence of SRMS (Q9H3Y6 whole entry): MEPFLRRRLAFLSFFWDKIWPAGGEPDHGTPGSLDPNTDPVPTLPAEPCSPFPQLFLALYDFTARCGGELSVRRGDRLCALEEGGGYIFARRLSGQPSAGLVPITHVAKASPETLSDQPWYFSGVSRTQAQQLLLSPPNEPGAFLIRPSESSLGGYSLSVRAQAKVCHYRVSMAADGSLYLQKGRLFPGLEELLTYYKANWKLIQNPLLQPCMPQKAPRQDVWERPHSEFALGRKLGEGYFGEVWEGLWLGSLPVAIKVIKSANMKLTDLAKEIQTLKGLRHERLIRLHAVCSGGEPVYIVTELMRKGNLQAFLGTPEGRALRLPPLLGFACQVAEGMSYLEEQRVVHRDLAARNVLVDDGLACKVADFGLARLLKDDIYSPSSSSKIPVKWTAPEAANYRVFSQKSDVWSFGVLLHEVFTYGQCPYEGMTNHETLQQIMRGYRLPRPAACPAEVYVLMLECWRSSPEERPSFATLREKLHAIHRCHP
Sequence of RIPK4 (P57078 whole entry): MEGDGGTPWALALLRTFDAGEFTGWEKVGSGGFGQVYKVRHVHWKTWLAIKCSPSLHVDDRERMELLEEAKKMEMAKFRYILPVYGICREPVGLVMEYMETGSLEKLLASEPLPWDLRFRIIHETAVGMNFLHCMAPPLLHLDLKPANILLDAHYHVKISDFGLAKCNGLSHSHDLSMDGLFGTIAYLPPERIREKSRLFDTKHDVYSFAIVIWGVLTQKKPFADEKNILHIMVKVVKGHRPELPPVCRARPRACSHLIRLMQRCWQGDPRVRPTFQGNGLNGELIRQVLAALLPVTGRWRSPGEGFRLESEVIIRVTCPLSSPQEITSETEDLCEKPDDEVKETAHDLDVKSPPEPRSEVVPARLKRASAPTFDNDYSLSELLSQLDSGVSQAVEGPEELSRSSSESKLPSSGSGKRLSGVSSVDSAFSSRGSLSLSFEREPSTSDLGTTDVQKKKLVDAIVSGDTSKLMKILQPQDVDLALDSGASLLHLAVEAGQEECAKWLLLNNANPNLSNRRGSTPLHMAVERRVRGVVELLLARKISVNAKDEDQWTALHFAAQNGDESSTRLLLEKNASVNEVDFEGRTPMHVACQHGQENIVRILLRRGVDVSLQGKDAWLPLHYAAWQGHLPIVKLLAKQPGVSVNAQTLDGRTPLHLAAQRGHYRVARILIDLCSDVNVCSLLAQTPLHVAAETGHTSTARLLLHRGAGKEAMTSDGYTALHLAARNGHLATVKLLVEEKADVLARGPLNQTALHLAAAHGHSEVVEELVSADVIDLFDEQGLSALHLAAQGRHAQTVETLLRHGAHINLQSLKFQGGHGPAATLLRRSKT
Sequence of ADCK3 (Q8NI60 163-647): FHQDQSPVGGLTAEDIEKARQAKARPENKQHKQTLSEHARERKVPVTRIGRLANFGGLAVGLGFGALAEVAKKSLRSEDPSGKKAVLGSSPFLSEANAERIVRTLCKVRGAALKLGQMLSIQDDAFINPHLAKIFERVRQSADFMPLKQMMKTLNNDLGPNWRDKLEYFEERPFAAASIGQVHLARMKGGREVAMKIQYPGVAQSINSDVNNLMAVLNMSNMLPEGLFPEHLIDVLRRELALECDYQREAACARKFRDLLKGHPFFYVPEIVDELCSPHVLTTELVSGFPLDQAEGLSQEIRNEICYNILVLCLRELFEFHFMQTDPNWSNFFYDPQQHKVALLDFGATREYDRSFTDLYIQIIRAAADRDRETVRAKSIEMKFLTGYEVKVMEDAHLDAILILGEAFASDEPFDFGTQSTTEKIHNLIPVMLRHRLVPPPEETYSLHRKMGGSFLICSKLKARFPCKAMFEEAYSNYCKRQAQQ
Sequence of PAK2 (Q13177 whole entry): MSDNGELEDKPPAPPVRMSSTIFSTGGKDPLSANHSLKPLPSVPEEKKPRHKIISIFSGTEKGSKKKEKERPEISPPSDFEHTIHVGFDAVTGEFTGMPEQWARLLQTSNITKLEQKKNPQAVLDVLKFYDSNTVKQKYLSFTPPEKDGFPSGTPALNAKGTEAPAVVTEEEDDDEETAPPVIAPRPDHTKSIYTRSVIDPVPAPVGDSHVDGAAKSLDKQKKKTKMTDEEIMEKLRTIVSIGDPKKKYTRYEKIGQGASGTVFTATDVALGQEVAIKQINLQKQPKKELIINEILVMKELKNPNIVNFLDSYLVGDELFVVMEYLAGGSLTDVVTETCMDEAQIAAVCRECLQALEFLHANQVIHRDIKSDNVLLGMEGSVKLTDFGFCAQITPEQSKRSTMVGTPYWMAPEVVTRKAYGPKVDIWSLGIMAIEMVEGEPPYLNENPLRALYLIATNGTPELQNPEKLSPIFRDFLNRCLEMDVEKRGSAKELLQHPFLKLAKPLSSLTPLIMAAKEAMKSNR
Sequence of CDK8 (P49336 whole entry): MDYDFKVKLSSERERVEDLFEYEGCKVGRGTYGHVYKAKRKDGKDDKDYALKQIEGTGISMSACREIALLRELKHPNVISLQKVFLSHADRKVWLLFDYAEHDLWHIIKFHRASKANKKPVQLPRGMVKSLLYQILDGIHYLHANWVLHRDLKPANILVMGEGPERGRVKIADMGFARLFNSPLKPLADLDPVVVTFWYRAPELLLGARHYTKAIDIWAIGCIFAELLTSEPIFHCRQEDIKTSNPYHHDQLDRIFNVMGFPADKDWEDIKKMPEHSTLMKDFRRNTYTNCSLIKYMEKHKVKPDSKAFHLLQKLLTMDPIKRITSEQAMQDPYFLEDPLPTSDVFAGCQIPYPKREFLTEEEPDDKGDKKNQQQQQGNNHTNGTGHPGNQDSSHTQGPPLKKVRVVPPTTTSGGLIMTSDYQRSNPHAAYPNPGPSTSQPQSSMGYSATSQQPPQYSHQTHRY
Sequence of EGFR(L858R) (P00533 25-1210 L858R): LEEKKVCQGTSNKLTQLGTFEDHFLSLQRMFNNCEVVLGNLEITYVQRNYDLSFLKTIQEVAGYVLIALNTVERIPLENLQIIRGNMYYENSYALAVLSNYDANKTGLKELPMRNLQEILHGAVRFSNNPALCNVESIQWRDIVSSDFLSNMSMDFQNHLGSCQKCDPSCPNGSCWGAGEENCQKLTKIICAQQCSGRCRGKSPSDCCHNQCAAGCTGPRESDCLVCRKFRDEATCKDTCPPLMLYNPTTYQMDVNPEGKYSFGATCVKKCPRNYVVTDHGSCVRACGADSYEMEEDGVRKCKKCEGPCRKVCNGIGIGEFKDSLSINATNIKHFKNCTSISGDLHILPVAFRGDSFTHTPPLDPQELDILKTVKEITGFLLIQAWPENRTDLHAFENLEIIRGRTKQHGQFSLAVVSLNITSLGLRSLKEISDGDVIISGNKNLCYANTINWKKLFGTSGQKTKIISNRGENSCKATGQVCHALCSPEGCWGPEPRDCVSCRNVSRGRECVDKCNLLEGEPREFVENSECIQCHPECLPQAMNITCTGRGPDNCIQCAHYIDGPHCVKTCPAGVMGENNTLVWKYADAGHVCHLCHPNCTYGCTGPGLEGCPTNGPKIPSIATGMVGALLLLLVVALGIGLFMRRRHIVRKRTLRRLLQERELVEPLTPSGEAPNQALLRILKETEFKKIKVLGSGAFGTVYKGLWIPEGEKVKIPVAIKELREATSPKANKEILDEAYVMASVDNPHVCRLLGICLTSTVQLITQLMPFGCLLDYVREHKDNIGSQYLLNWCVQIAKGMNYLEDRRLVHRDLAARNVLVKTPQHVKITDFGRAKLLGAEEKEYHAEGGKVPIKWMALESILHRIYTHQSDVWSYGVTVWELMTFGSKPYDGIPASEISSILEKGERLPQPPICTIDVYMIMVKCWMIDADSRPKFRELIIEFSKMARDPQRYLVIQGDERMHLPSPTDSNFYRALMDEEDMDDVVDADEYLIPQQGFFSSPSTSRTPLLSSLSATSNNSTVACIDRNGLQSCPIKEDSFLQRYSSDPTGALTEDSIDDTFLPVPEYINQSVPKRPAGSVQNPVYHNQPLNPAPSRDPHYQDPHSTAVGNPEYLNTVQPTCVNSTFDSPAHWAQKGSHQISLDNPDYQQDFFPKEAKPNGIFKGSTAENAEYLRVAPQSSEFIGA
Sequence of RET(V804M) (P07949 29-1114 V804M): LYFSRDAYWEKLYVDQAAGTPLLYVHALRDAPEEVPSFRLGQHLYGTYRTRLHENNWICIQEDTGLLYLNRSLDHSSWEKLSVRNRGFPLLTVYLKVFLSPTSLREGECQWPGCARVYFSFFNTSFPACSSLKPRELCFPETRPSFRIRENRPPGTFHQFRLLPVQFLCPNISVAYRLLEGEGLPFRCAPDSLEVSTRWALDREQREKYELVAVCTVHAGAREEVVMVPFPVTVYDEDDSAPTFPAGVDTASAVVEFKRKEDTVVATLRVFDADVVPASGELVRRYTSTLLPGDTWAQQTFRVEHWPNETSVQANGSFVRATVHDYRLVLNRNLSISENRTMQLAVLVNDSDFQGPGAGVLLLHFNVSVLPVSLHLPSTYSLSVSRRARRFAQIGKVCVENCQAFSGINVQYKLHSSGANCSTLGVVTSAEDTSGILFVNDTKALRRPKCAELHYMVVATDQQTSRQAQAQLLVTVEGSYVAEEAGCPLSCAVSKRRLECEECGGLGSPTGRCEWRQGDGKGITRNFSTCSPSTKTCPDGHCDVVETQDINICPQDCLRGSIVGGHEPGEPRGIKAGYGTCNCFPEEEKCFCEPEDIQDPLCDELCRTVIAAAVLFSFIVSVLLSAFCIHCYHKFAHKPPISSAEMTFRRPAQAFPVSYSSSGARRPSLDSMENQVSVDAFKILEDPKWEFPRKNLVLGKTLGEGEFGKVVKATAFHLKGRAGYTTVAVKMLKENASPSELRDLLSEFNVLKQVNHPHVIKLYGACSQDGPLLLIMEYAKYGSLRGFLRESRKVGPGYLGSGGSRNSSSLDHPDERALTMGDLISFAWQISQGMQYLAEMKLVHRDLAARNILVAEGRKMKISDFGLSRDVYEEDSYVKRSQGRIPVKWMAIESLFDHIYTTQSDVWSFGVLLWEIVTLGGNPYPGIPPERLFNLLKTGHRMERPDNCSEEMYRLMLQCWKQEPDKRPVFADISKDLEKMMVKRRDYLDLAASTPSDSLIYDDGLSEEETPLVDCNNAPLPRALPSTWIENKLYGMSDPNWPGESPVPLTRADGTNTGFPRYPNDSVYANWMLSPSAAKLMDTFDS

CC(C)COC(=O)c1[nH]c2ccc(F)cc2c1-c1cn(CC2CCN(CCNS(=O)(=O)c3ccc(CC(C)C)cc3)CC2)nn1 [AB668, isobutyl 5-fluoro-3-(1-((1-(2-((4-isobutylphenyl)sulfonamido)ethyl)piperidin-4-yl)methyl)-1H-1,2,3-triazol-4-yl)-1H-indole-2-carboxylate]
cytotoxicity (primary hepatocytes): no cytotoxicity | remaining activity at 2 µM (ADCK3): 86% | remaining activity at 2 µM (ALK): 91% | remaining activity at 2 µM (ANKK1): 100% | remaining activity at 2 µM (CAMKK2): 81% | remaining activity at 2 µM (CDK3): 100% | remaining activity at 2 µM (CDK8): 81% | remaining activity at 2 µM (CSK): 95% | remaining activity at 2 µM (DAPK1): 100% | remaining activity at 2 µM (DAPK3): 100% | remaining activity at 2 µM (EGFR(L858R)): 96% | remaining activity at 2 µM (EGFR(L858R,T790M)): 83% | remaining activity at 2 µM (EGFR(L861Q)): 79% | remaining activity at 2 µM (EIF2AK1): 88% | remaining activity at 2 µM (EPHB3): 80% | remaining activity at 2 µM (ERK3): 91% | remaining activity at 2 µM (ERK5): 88% | remaining activity at 2 µM (FER): 100% | remaining activity at 2 µM (GAK): 99% | remaining activity at 2 µM (HUNK): 88% | remaining activity at 2 µM (KIT(V559D)): 98% | remaining activity at 2 µM (KIT(V559D,V654A)): 100% | remaining activity at 2 µM (LCK): 99% | remaining activity at 2 µM (MAP4K4): 96% | remaining activity at 2 µM (MET(Y1235D)): 74% | remaining activity at 2 µM (MRCKA): 84% | remaining activity at 2 µM (NEK10): 80% | remaining activity at 2 µM (NEK5): 84% | remaining activity at 2 µM (PAK2): 81% | remaining activity at 2 µM (PFPK5(P.falciparum)): 100% | remaining activity at 2 µM (PIK3CA(Q546K)): 100% | remaining activity at 2 µM (PIP5K1A): 85% | remaining activity at 2 µM (PRKG2): 97% | remaining activity at 2 µM (RAF1): 100% | remaining activity at 2 µM (RET(V804M)): 76% | remaining activity at 2 µM (RIPK4): 100% | remaining activity at 2 µM (SNRK): 100% | remaining activity at 2 µM (SRMS): 93% | remaining activity at 2 µM (TNNI3K): 96% | remaining activity at 2 µM (TYRO3): 100% | remaining activity at 2 µM (WNK2): 87% | remaining activity at 2 µM (WNK3): 98% | remaining activity at 2 µM (YES): 100%

From publication PMC10838953
